{"source": "patent US7255796B2", "about": "“Method of preventing hydrogen sulfide odor generation in an aqueous medium” (General Electric Company, priority 2004, dated 2007)", "key": {"[1]": {"tested_on": "microorganisms (PetriFilm Count)", "assay": "Serum bottle test: PetriFilm count after treatment (toxicity)", "format": "cell-based", "description": "(§1) The test protocol was as follows: 100 mL serum bottles were filled with synthetic nutrient medium, then stoppered, capped, and autoclaved, and allowed to cool to at least 35C. Using a 1 mL syringe with needle, the treatment was added at desired dosages to prepared serum bottles (triplicates of each dosage). No treatment was added for baseline controls. At least 6 baseline serum bottles were used. Using a 1 mL syringe with needle, 0.1 mL of prepared culture was added to each serum bottle.\n(§2) Next, a 10^10 cells/ml concentration of the sulfate reducers was prepared (using autoclaved synthetic nutrient medium) inside an anaerobic chamber. Using a 1 ml syringe with needle, 0.1 ml of the prepared sulfate reducers culture was added to each serum bottle. The bottles were then incubated at the desired temperature.\n(§3) The baseline dissolved sulfide levels were then measured to determine if the samples were ready for efficacy analysis. Using a 30 mL syringe with needle, 30 mL of sample was removed from each serum bottle. About 25 mL of the sample was added to a 30 mL bottle containing 0.125 mL zinc acetate solution, followed by adding 1 mL of 1N NaOH. The sulfide in the fixed sample was then measured. The remaining 5 mL of sample in the syringe was used for pH determination. Separate field studies were also conducted."}, "[2]": {"assay": "Serum bottle test: medium pH after treatment", "format": "physicochemical", "description": "as §1, §2, §3"}, "[3]": {"tested_on": "sulfate reducing bacteria (SRB)", "assay": "Serum bottle test: SRB growth after treatment (toxicity)", "format": "cell-based, sulfate reducers", "description": "as §1, §2, §3"}, "[4]": {"tested_on": "real municipal wastewater", "assay": "H2S inhibition using real municipal wastewater, Field Study 1"}, "[5]": {"tested_on": "real municipal wastewater", "assay": "H2S inhibition using real municipal wastewater, Field Study 2"}, "[6]": {"conditions": "scavenger dosage 200 ppm active"}, "[7]": {"conditions": "Field Study 1, scavenger dosage 10 ppm active"}, "[8]": {"conditions": "Field Study 2, scavenger dosage 10 ppm active"}}, "note": "Marks after values point to notes of the source that are not given here."}
{"smiles": "O=CCCCC=O", "note": "[Glutaraldehyde, reference compound]", "values": [{"measurement": "PetriFilm Count after Treatment", "setting": "[1]; [6]", "value": 0}, {"measurement": "Medium pH after Treatment", "setting": "[2]; [6]", "value": 7.5}, {"measurement": "SRB Growth after Treatment", "setting": "[3]; [6]", "value": 0}]}
{"smiles": "O=CC=O", "note": "[Glyoxal, glyoxal]", "values": [{"measurement": "PetriFilm Count after Treatment", "setting": "[1]; scavenger dosage 8 ppm active", "value": "8.3 × 10^8"}, {"measurement": "Head Space H2S", "setting": "[4]; Field Study 1, scavenger dosage 0.3 ppm active", "value": 27, "unit": "ppm"}, {"measurement": "Head Space H2S", "setting": "[4]; Field Study 1, scavenger dosage 3.8 ppm active", "value": 8, "unit": "ppm"}, {"measurement": "Head Space H2S", "setting": "[4]; Field Study 1, scavenger dosage 6.0 ppm active", "value": 7, "unit": "ppm"}, {"measurement": "Head Space H2S", "setting": "[4]; Field Study 1, scavenger dosage 8 ppm active", "value": 2, "unit": "ppm"}, {"measurement": "Head Space H2S", "setting": "[4]; [7]", "value": 0.5, "unit": "ppm"}, {"measurement": "Medium pH after Treatment", "setting": "[2]; scavenger dosage 8 ppm active", "value": 6.5}, {"measurement": "SRB Growth after Treatment", "setting": "[3]; scavenger dosage 8 ppm active", "value": "10^8"}, {"measurement": "Head Space H2S", "setting": "[5]; Field Study 2, scavenger dosage 0.5 ppm active", "value": 47, "unit": "ppm"}, {"measurement": "Head Space H2S", "setting": "[5]; Field Study 2, scavenger dosage 4.0 ppm active", "value": 12, "unit": "ppm"}, {"measurement": "Head Space H2S", "setting": "[5]; Field Study 2, scavenger dosage 6.0 ppm active", "value": 0.1, "unit": "ppm"}, {"measurement": "Head Space H2S", "setting": "[5]; Field Study 2, scavenger dosage 8.0 ppm active", "value": 0.1, "unit": "ppm"}, {"measurement": "Head Space H2S", "setting": "[5]; [8]", "value": "5.0* ppm"}]}
{"smiles": "O=[N+]([O-])[O-].O=[N+]([O-])[O-].[Mg+2]", "note": "[Mg(NO3)2, magnesium nitrate, reference compound]", "values": [{"measurement": "Head Space H2S", "setting": "[4]; [7]", "value": 27, "unit": "ppm"}, {"measurement": "Head Space H2S", "setting": "[5]; [8]", "value": 47, "unit": "ppm"}]}
{"smiles": "c1ncncn1", "note": "[Triazine, triazine]", "values": [{"measurement": "PetriFilm Count after Treatment", "setting": "[1]; scavenger dosage 8 ppm active", "value": "5.5 × 10^8"}, {"measurement": "Medium pH after Treatment", "setting": "[2]; scavenger dosage 8 ppm active", "value": 6.5}, {"measurement": "SRB Growth after Treatment", "setting": "[3]; scavenger dosage 8 ppm active", "value": "10^8"}]}
